# How the values were obtained:
# Test in all cases: combination Emax (second highest fraction inhibited in the dose matrix, 72 h); higher = more inhibition; extreme values may be limits of the assay
# AM-38 (Glioblastoma) = system: AM-38 (Glioblastoma)
# Procedure, shortened: (§1)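 Cell lines in DMEM/F12 or RPMI with 10% FBS were plated in 1536-well plates, held 24 hours at 37°C, 5% CO2, then given two-drug dose matrices for 72 hours (DMSO typically 0.2%). Viability was read by CellTiter-Glo 2.0 luminescence and scaled as inhibition from 0 (vehicle wells) to 1 (blank wells). Combination Emax is the second-highest inhibition in the matrix; Bliss excess is observed combination effect minus expected EA + EB − EA·EB, EA and EB being single-agent effects.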
# [1] = system: CL-11 (Colorectal Carcinoma)
# Procedure, shortened: as §1
# [2] = system: COR-L88 (Small Cell Lung Carcinoma)
# Procedure, shortened: as §1
# IST-MEL1 (Melanoma) = system: IST-MEL1 (Melanoma)
# Procedure, shortened: as §1
# KALS-1 (Glioblastoma) = system: KALS-1 (Glioblastoma)
# Procedure, shortened: as §1
# [3] = system: LS-1034 (Colorectal Carcinoma)
# Procedure, shortened: as §1
# [4] = system: MM1S (Plasma Cell Myeloma)
# Procedure, shortened: as §1
# [5] = system: MS-1 (Small Cell Lung Carcinoma)
# Procedure, shortened: as §1
# [6] = system: NCI-H3118 (Head and Neck Carcinoma)
# Procedure, shortened: as §1
# [7] = system: OAW-28 (Ovarian Carcinoma)
# Procedure, shortened: as §1
# [8] = system: P32-ISH (Burkitt's Lymphoma)
# Procedure, shortened: as §1
# [9] = system: PL4 (Pancreatic Carcinoma)
# Procedure, shortened: as §1
# [10] = system: RCC-JW (Kidney Carcinoma)
# Procedure, shortened: as §1
# [11] = system: Raji (Burkitt's Lymphoma)
# Procedure, shortened: as §1
# [12] = system: SNU-C2B (Colorectal Carcinoma)
# Procedure, shortened: as §1
# [13] = system: SUP-M2 (T-Cell Non-Hodgkin's Lymphoma)
# Procedure, shortened: as §1
# [14] = system: SiHa (Cervical Carcinoma)
# Procedure, shortened: as §1
# T47D (Breast Carcinoma) = system: T47D (Breast Carcinoma)
# Procedure, shortened: as §1
# [15] = system: TUR (Acute Myeloid Leukemia)
# Procedure, shortened: as §1
# UACC-257 (Melanoma) = system: UACC-257 (Melanoma)
# Procedure, shortened: as §1
SMILES,combination Emax (AM-38 (Glioblastoma)),combination Emax [1],combination Emax [2],combination Emax (IST-MEL1 (Melanoma)),combination Emax (KALS-1 (Glioblastoma)),combination Emax [3],combination Emax [4],combination Emax [5],combination Emax [6],combination Emax [7],combination Emax [8],combination Emax [9],combination Emax [10],combination Emax [11],combination Emax [12],combination Emax [13],combination Emax [14],combination Emax (T47D (Breast Carcinoma)),combination Emax [15],combination Emax (UACC-257 (Melanoma))
"CCN(CCO)CCCOc1ccc2c(Nc3cc(CC(=O)Nc4cccc(F)c4)[nH]n3)ncnc2c1 [AZD2811] + C[C@@H]1COCCN1C2=NC(=NC(=C2)C3(CC3)[S@](=N)(=O)C)C4=C5C=CNC5=NC=C4 [AZD6738] (first compound max 1 µM, 7x7, partner max 10 µM)",0.747,0.777,0.615,0.731,0.828,0.64,0.646,0.72,0.599,0.396,0.992,0.657,0.545,0.691,0.655,0.999,0.225,0.313,0.861,0.16
"CCN(CCO)CCCOc1ccc2c(Nc3cc(CC(=O)Nc4cccc(F)c4)[nH]n3)ncnc2c1 [AZD2811] + O=C(c1cc(Cc2n[nH]c(=O)c3ccccc23)ccc1F)N1CCN(C(=O)C2CC2)CC1 [Olaparib] (first compound max 1 µM, 7x7, partner max 10 µM)",0.331,0.202,0.295,0.259,0.296,0.192,0.291,0.454,0.208,0.213,0.946,0.269,0.183,0.341,0.269,0.975,0.173,0.233,0.285,0.237
"CN(CCO)CC[C@H](CSc1ccccc1)Nc1ccc(S(=O)(=O)NC(=O)c2ccc(N3CCC([C@@H](O)c4ccccc4-c4ccc(Cl)cc4)CC3)cc2)cc1S(=O)(=O)C(F)(F)F [AZD4320] + C1CN(CCC1(C(=O)N[C@@H](CCO)C2=CC=C(C=C2)Cl)N)C3=NC=NC4=C3C=CN4 [Capivasertib] (first compound max 1 µM, 7x7, partner max 3 µM)",0.561,0.147,0.971,0.26,0.485,0.275,1,0.52,0.0845,0.899,0.318,0.497,0.615,0.177,0.201,0.365,0.171,0.364,0.559,0.1
"CN(CCO)CC[C@H](CSc1ccccc1)Nc1ccc(S(=O)(=O)NC(=O)c2ccc(N3CCC([C@@H](O)c4ccccc4-c4ccc(Cl)cc4)CC3)cc2)cc1S(=O)(=O)C(F)(F)F [AZD4320] + C=CCn1c(=O)c2cnc(Nc3ccc(N4CCN(C)CC4)cc3)nc2n1-c1cccc(C(C)(C)O)n1 [AZD1775] (first compound max 1 µM, partner max 1 µM)",0.834,0.507,0.978,0.85,0.975,0.371,1,1,0.916,0.966,0.994,0.708,0.712,0.591,0.79,1,0.112,0.195,0.904,0.103
"CN(CCO)CC[C@H](CSc1ccccc1)Nc1ccc(S(=O)(=O)NC(=O)c2ccc(N3CCC([C@@H](O)c4ccccc4-c4ccc(Cl)cc4)CC3)cc2)cc1S(=O)(=O)C(F)(F)F [AZD4320] + CCN(CCO)CCCOc1ccc2c(Nc3cc(CC(=O)Nc4cccc(F)c4)[nH]n3)ncnc2c1 [AZD2811] (first compound max 1 µM, 7x7, partner max 1 µM)",0.932,0.0894,0.974,0.407,0.508,0.251,1,0.597,0.333,0.958,0.915,0.544,0.661,0.219,0.168,0.979,0.162,0.335,0.255,0.161
"CN(CCO)CC[C@H](CSc1ccccc1)Nc1ccc(S(=O)(=O)NC(=O)c2ccc(N3CCC([C@@H](O)c4ccccc4-c4ccc(Cl)cc4)CC3)cc2)cc1S(=O)(=O)C(F)(F)F [AZD4320] + CN(C)CCCOc1ccc(-c2ccc3ncc4c(c3c2)n(C2CCOCC2)c(=O)n4C)cn1 [AZD0156] (first compound max 1 µM, 7x7, partner max 1 µM)",0.718,0.144,0.957,0.249,0.227,0.347,0.984,0.68,0.0719,0.912,0.17,0.462,0.62,0.136,0.208,0.388,0.108,0.283,0.118,0.141
"CN(CCO)CC[C@H](CSc1ccccc1)Nc1ccc(S(=O)(=O)NC(=O)c2ccc(N3CCC([C@@H](O)c4ccccc4-c4ccc(Cl)cc4)CC3)cc2)cc1S(=O)(=O)C(F)(F)F [AZD4320] + C[C@@H]1COCCN1C2=NC(=NC(=C2)C3(CC3)[S@](=N)(=O)C)C4=C5C=CNC5=NC=C4 [AZD6738] (first compound max 1 µM, 7x7, partner max 10 µM)",0.95,0.895,0.992,0.941,0.939,0.721,1,0.934,0.765,0.957,0.896,0.878,0.79,0.768,0.636,0.998,0.246,0.324,0.971,0.186
"CN(CCO)CC[C@H](CSc1ccccc1)Nc1ccc(S(=O)(=O)NC(=O)c2ccc(N3CCC([C@@H](O)c4ccccc4-c4ccc(Cl)cc4)CC3)cc2)cc1S(=O)(=O)C(F)(F)F [AZD4320] + C[C@@H](Nc1cc(F)cc(F)c1)c1cc(C(=O)N(C)C)cc2c(=O)cc(N3CCOCC3)oc12 [AZD8186] (first compound max 1 µM, 7x7, partner max 3 µM)",0.905,0.378,0.966,0.405,0.5,0.334,0.988,0.613,0.39,0.991,0.782,0.694,0.817,0.354,0.374,0.944,0.33,0.439,0.19,0.269
"CN(CCO)CC[C@H](CSc1ccccc1)Nc1ccc(S(=O)(=O)NC(=O)c2ccc(N3CCC([C@@H](O)c4ccccc4-c4ccc(Cl)cc4)CC3)cc2)cc1S(=O)(=O)C(F)(F)F [AZD4320] + Cc1cc2ncnn2cc1Nc1ncc2c(n1)n(C1CCOCC1)c(=O)n2C [AZD7648] (first compound max 1 µM, 7x7, partner max 10 µM)",0.811,0.126,0.964,0.415,0.343,0.159,1,0.586,0.0876,0.899,0.193,0.421,0.566,0.202,0.191,0.47,0.12,0.312,0.242,0.122
"CN(CCO)CC[C@H](CSc1ccccc1)Nc1ccc(S(=O)(=O)NC(=O)c2ccc(N3CCC([C@@H](O)c4ccccc4-c4ccc(Cl)cc4)CC3)cc2)cc1S(=O)(=O)C(F)(F)F [AZD4320] + Cn1cnc2c(F)c(Nc3ccc(Br)cc3Cl)c(C(=O)NOCCO)cc21 [Selumetinib] (first compound max 1 µM, 7x7, partner max 3 µM)",0.951,0.811,0.959,0.35,0.449,0.594,0.983,0.533,0.422,0.984,0.801,0.751,0.665,0.338,0.422,0.959,0.247,0.314,0.161,0.838
"COc1nnc2ccc(N3CCC(c4ccc(OCCN5CCN(C)C(=O)[C@H]5C)cc4)CC3)nn12 [AZD5153] + C=CCn1c(=O)c2cnc(Nc3ccc(N4CCN(C)CC4)cc3)nc2n1-c1cccc(C(C)(C)O)n1 [AZD1775] (first compound max 1 µM, partner max 1 µM)",0.353,0.809,0.677,0.524,0.723,0.613,0.734,0.964,0.754,0.701,0.982,0.662,0.382,0.711,0.584,0.996,0.621,0.505,0.867,0.359

# — the supplement of paper PMC11061612
